Measurements taken from patent US9346798B2, “Dihydrobenzoxazine and tetrahydroquinoxaline sodium channel inhibitors” (AMGEN INC., priority 2012, dated 2016).

How the values were obtained:
Format in all cases: cell-based
Nav 1.7 [1] = biological target: T1, Nav 1.7 (Homo sapiens (Human), UniProt Q15858); assay: Nav 1.7 in vitro assay, IonWorks Quattro (IWQ) population patch-clamp; settings: HEK 293 cells stably transfected with Nav 1.7; 26th pulse to -20 mV
Procedure: (§1) Nav 1.7 and Nav 1.5 In Vitro Assays
(§2) HEK 293 cells stably transfected with either Nav 1.7 or with Nav 1.5 were recorded in population patch-clamp mode with the IonWorks® Quattro automated electrophysiology system in accordance with the manufacturer's specifications (Molecular Devices, LLC, Sunnyvale, Calif.). Sodium channel currents were measured in response to a train of depolarizations that induced successively greater inactivation.
(§3) Cells were held at −110 mV for three seconds (Nav 1.7) or half a second (Nav 1.5) from a holding voltage of −15 mV, then put through a series of 26 pulses of 150 msec duration to −20 mV at a frequency of 5 Hz. Cells were then left unclamped for a period of 3 to 8 minutes while a single concentration of test compound was added. Cells were then reclamped and put through the same voltage protocol. Current at the end of the 26th pulse to −20 mV was subtracted from the peak current evoked by the 26th pulse to −20 mV to correct for leak current. Percent block was calculated for each concentration in duplicate, and IC50 curves were fitted to percent block as a function of concentration.

Nav 1.7 [2] = biological target: T1, Nav 1.7; assay: Nav 1.7 in vitro PX assay, PatchXpress whole cell voltage clamp; settings: HEK 293 cells stably transfected with human Nav1.7; for IC50: partially inactivated state (20 to 50% inactivation)
In short: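 Partially inactivated channels (20–50% inactivation at holding potential) were probed on automated patch clamp in stably transfected HEK293 cells, stepping to −10 mV for 20 msec every 10 s (0.1 Hz).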

Nav 1.5 = Nav 1.5 (Homo sapiens (Human), UniProt Q14524); assay: Nav 1.5 in vitro assay, IonWorks Quattro (IWQ) population patch-clamp; settings: HEK 293 cells stably transfected with Nav 1.5; 26th pulse to -20 mV
Procedure: as §1, §2, §3

T1 sequence (Q15858 whole entry): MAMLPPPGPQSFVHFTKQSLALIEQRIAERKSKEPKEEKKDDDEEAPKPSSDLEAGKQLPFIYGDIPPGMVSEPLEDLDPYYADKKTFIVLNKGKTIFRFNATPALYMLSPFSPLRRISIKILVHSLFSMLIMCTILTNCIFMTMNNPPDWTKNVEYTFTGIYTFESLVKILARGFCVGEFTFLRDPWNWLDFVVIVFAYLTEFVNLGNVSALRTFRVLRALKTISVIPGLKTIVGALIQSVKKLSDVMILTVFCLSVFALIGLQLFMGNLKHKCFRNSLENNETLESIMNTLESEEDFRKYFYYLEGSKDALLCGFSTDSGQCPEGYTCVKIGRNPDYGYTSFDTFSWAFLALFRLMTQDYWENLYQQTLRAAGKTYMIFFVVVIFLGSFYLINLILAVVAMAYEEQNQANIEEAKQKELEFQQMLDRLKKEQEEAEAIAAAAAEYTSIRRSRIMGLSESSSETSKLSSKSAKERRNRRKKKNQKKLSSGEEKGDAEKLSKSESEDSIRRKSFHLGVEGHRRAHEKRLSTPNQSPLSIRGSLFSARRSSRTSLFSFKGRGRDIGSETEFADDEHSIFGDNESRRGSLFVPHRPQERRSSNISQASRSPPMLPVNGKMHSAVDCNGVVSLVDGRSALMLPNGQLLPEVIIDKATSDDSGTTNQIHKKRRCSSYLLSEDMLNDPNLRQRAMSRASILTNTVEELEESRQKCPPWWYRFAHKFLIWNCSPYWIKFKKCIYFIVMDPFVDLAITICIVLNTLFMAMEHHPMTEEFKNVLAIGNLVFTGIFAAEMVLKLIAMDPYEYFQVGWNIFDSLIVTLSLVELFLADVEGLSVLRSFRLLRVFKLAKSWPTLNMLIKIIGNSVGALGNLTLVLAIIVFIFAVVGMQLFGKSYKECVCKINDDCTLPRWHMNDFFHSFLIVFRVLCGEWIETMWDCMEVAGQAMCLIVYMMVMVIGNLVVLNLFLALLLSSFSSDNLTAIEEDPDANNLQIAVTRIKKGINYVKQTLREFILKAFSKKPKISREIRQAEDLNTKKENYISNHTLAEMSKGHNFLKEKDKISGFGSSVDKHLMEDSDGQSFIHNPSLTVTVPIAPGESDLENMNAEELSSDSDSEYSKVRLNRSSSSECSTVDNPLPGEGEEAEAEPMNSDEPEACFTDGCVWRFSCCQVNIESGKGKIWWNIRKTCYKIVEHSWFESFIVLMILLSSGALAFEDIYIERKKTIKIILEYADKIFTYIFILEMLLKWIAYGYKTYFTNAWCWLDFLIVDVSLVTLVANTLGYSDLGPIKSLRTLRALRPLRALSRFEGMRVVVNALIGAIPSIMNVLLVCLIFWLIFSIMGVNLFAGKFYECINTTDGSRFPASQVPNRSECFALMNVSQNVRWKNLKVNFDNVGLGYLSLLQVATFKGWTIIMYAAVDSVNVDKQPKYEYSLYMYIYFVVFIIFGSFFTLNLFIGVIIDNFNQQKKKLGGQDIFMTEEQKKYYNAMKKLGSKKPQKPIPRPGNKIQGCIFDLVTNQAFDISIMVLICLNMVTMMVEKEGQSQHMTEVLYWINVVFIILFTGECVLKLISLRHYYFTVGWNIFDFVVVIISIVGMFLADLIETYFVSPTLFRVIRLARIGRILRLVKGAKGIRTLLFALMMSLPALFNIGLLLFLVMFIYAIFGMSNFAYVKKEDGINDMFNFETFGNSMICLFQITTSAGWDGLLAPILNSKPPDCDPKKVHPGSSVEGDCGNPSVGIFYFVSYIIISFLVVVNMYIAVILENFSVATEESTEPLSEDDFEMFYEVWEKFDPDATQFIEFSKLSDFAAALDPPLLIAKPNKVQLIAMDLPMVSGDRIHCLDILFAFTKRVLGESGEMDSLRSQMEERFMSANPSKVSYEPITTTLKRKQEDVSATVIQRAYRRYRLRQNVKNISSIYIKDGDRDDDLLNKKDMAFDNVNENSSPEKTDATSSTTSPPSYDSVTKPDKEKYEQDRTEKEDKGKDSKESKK
Sequence of Nav 1.5 (Q14524 whole entry): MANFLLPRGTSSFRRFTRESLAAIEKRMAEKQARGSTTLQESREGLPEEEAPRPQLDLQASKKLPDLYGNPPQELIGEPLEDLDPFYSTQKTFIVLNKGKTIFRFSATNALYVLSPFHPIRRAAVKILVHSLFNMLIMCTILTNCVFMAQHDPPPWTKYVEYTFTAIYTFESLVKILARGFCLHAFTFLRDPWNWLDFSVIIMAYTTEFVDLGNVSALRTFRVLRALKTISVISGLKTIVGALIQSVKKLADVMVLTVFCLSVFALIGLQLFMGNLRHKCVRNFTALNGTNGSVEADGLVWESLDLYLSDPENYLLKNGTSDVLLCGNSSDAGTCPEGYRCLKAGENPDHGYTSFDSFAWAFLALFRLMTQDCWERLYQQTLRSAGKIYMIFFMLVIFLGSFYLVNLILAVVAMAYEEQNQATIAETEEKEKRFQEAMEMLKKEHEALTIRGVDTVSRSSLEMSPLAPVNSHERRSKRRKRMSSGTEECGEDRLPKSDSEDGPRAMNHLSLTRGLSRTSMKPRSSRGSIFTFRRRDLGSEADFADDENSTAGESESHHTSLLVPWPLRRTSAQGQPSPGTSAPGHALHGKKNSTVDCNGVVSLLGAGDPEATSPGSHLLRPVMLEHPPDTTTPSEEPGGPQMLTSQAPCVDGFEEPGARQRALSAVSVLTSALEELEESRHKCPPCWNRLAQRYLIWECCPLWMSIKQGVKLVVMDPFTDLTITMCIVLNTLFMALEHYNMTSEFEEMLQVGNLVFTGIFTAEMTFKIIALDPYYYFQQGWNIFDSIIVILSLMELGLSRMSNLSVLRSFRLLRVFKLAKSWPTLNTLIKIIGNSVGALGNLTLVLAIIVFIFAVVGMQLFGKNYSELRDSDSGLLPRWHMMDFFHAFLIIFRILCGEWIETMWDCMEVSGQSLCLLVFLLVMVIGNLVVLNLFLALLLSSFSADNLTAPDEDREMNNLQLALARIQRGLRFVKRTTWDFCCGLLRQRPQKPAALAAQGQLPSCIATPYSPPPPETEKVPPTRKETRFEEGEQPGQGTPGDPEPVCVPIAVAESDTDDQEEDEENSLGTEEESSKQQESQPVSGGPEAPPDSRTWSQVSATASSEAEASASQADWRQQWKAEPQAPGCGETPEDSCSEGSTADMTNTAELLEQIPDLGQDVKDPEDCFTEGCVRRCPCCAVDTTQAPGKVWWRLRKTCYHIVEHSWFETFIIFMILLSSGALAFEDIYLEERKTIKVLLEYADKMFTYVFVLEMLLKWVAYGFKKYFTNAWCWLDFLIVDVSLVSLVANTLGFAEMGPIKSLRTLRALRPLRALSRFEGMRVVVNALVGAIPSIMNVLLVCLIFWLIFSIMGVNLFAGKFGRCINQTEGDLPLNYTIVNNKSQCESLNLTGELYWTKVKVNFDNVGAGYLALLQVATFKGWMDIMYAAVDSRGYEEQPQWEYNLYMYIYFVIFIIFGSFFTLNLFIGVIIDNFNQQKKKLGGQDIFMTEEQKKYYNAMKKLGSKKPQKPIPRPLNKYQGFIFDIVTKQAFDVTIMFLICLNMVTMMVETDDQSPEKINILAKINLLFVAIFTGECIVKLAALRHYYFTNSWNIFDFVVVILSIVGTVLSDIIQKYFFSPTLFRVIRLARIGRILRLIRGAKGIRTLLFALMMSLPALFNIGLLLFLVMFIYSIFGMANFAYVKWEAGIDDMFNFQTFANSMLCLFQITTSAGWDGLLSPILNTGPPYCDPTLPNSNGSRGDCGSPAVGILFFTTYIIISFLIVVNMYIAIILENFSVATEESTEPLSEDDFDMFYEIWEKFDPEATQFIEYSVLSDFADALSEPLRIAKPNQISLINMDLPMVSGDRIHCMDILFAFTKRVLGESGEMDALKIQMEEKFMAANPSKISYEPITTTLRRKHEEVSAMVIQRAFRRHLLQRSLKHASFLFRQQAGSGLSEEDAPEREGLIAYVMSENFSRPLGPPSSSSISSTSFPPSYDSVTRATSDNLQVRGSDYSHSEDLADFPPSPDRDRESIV

| Compound | IC50 (Nav 1.7 [1]) | IC50 (Nav 1.7 [2]) | IC50 (Nav 1.5) | inhibition at 4.9 µM (Nav 1.7 [2]; HEK293, values marked *, 4.9 μM, read-out: Nav 1.7 PX percent inhibition at 4.9 μM) |
| --- | --- | --- | --- | --- |
| N#Cc1cc(-c2ccccc2F)ccc1N1CCOc2cc(S(=O)(=O)Nc3nccs3)ccc21 [Example 198, 4-(3-cyano-2′-fluoro-[1,1′-biphenyl]-4-yl)-N-(thiazol-2-yl)-3,4-dihydro-2H-benzo[b][1,4]oxazine-7-sulfonamide] | 627 nM | 339 nM | 1.88 µM | – |
| COc1ccc(N2CCOc3cc(S(=O)(=O)Nc4nccs4)ccc32)c(OC)c1 [Example 120, 4-(2,4-Dimethoxyphenyl)-N-(thiazol-2-yl)-3,4-dihydro-2H-benzo[b][1,4]oxazine-7-sulfonamide] | 796 nM | 2240 nM | > 10 µM | – |
| CCC1CN(c2ccc(C(F)(F)F)cc2C#N)c2ccc(S(=O)(=O)Nc3nccs3)cc2O1 (racemic) [Example 100, 4-(2-Cyano-4-(Trifluoromethyl)Phenyl)-2-Ethyl-N-(Thiazol-2-Yl)-3,4-Dihydro-2H-Benzo[B][1,4]Oxazine-7-Sulfonamide] | 679 nM | 5790 nM | > 10 µM | – |
| N#Cc1cc(C(F)(F)F)ccc1N1CCOc2cc(S(=O)(=O)Nc3cscn3)ccc21 [Example 152, 4-(2-cyano-4-(trifluoromethyl)phenyl)-N-(thiazol-4-yl)-3,4-dihydro-2H-benzo[b][1,4]oxazine-7-sulfonamide] | 1630 nM | 2780 nM | 9.42 µM | – |
| O=S(=O)(Nc1nccs1)c1ccc2c(c1)OCCN2c1ccc(-n2cccn2)cc1 [Example 141, 4-(4-(1H-pyrazol-1-yl)phenyl)-N-(thiazol-2-yl)-3,4-dihydro-2H-benzo[b][1,4]oxazine-7-sulfonamide] | 671 nM | 6420 nM | 2.5 µM | – |
| O=S(=O)(Nc1ccncn1)c1ccc2c(c1)OCCN2c1ccc(C(F)(F)F)cc1Cl [Example 32, 4-(2-Chloro-4-(Trifluoromethyl)Phenyl)-N-(Pyrimidin-4-Yl)-3,4-Dihydro-2H-Benzo[B][1,4]Oxazine-7-Sulfonamide] | 72.5 nM | 534 nM | 4.77 µM | – |
| Cn1nccc1-c1cc(C(F)(F)F)ccc1N1CCOc2cc(S(=O)(=O)Nc3ncns3)ccc21 [Example 3, 4-(2-(1-Methyl-1H-Pyrazol-5-Yl)-4-(Trifluoromethyl)Phenyl)-N-(1,2,4-Thiadiazol-5-Yl)-3,4-Dihydro-2H-Benzo[B][1,4]Oxazine-7-Sulfonamide] | 10.8 nM | 57.7 nM | 1.87 µM | – |
| O=S(=O)(Nc1nccs1)c1ccc2c(c1)OCCN2c1ccc(C(F)(F)F)cc1Br [Example 43, 4-(2-Bromo-4-(Trifluoromethyl)Phenyl)-N-(Thiazol-2-Yl)-3,4-Dihydro-2H-Benzo[B][1,4]Oxazine-7-Sulfonamide] | 115 nM | 975 nM | 1.85 µM | – |
| O=S(=O)(Nc1nccs1)c1ccc2c(c1)OCCN2c1ccc(Cl)c(Cl)c1 [Example 74, 4-(3,4-Dichlorophenyl)-N-(Thiazol-2-Yl)-3,4-Dihydro-2H-Benzo[B][1,4]Oxazine-7-Sulfonamide 2,2,2-Trifluoroacetate] | 5240 nM | 4070 nM | 6.08 µM | – |
| COc1cc(C#N)ccc1N1C[C@@H](C)Oc2cc(S(=O)(=O)Nc3nccs3)ccc21 (single isomer, unassigned) [Example 108] | 45.5 nM | 303 nM | > 10 µM | – |
| O=S(=O)(Nc1nccs1)c1ccc2c(c1)OCCN2c1cccc(OC(F)F)c1 [Example 172, 4-(3-(Difluoromethoxy)Phenyl)-N-(Thiazol-2-Yl)-3,4-Dihydro-2H-Benzo[B][1,4]Oxazine-7-Sulfonamide 2,2,2-Trifluoroacetate] | 244 nM | 936 nM | > 10 µM | – |
| COc1ccncc1N1CCOc2cc(S(=O)(=O)Nc3nccs3)ccc21 [Example 190, 4-(4-Methoxypyridin-3-Yl)-N-(Thiazol-2-Yl)-3,4-Dihydro-2H-Benzo[B][1,4]Oxazine-7-Sulfonamide] | 309 nM | 5170 nM | > 10 µM | – |
| O=S(=O)(Nc1nccs1)c1ccc2c(c1)OCCN2c1ncc(F)cc1F [Example 136, 4-(3,5-Difluoropyridin-2-yl)-N-(thiazol-2-yl)-3,4-dihydro-2H-benzo[b][1,4]oxazine-7-sulfonamide] | 2980 nM | – | > 10 µM | 27.4% |
| COc1cnc(N2CCOc3cc(S(=O)(=O)Nc4nccs4)ccc32)c(OC)c1 [Example 144, 4-(3,5-Dimethoxypyridin-2-yl)-N-(thiazol-2-yl)-3,4-dihydro-2H-benzo[b][1,4]oxazine-7-sulfonamide] | 894 nM | 7670 nM | > 10 µM | – |
| O=S(=O)(Nc1nccs1)c1ccc2c(c1)OCCN2c1ccc2scnc2c1 [Example 70, 4-(Benzo[D]Thiazol-5-Yl)-N-(Thiazol-2-Yl)-3,4-Dihydro-2H-Benzo[B][1,4]Oxazine-7-Sulfonamide 2,2,2-Trifluoroacetate] | 638 nM | 5690 nM | > 10 µM | – |
| O=S(=O)(Nc1nccs1)c1ccc2c(c1)OCCN2c1ccc(Cl)cc1F [Example 170, 4-(4-Chloro-2-Fluorophenyl)-N-(Thiazol-2-Yl)-3,4-Dihydro-2H-Benzo[B][1,4]Oxazine-7-Sulfonamide 2,2,2-Trifluoroacetate] | 401 nM | 2620 nM | > 10 µM | – |
| CC(C)c1ccc(N2CCOc3cc(S(=O)(=O)Nc4nccs4)ccc32)c(C#N)c1 [Example 202, 4-(2-cyano-4-isopropylphenyl)-N-(thiazol-2-yl)-3,4-dihydro-2H-benzo[b][1,4]oxazine-7-sulfonamide] | 93.5 nM | 428 nM | 0.686 µM | – |
| O=S(=O)(Nc1nccs1)c1ccc2c(c1)OCCN2c1ccc(C(F)(F)F)cc1CC(O)CO (racemic) [Example 207, 4-(2-(2,3-Dihydroxypropyl)-4-(Trifluoromethyl)Phenyl)-N-(Thiazol-2-Yl)-3,4-Dihydro-2H-Benzo[B][1,4]Oxazine-7-Sulfonamide] | 25 nM | 86.7 nM | 3.11 µM | – |
| O=S(=O)(Nc1nccs1)c1ccc2c(c1)OCCN2c1ccc(C(F)(F)F)cn1 [Example 183, N-(Thiazol-2-Yl)-4-(5-(Trifluoromethyl)Pyridin-2-Yl)-3,4-Dihydro-2H-Benzo[B][1,4]Oxazine-7-Sulfonamide] | 177 nM | 3320 nM | > 10 µM | – |
| O=S(=O)(Nc1nccs1)c1ccc2c(c1)OCCN2c1ccc(Cl)c(C(F)(F)F)c1 [Example 125, 4-(4-Chloro-3-(trifluoromethyl)phenyl)-N-(thiazol-2-yl)-3,4-dihydro-2H-benzo[b][1,4]oxazine-7-sulfonamide] | 571 nM | 4040 nM | 6.55 µM | – |
| CN1CC=C(c2cc(C(F)(F)F)ccc2N2CCOc3cc(S(=O)(=O)Nc4nccs4)ccc32)CC1 [Example 44, 4-(2-(1-Methyl-1,2,3,6-Tetrahydropyridin-4-Yl)-4-(Trifluoromethyl)Phenyl)-N-(Thiazol-2-Yl)-3,4-Dihydro-2H-Benzo[B][1,4]Oxazine-7-Sulfonamide] | 14 nM | 68.7 nM | 3.59 µM | – |
| Cc1cc(N2CCOc3cc(S(=O)(=O)Nc4nccs4)ccc32)ccc1C#N [Example 116, 4-(4-Cyano-3-methylphenyl)-N-(thiazol-2-yl)-3,4-dihydro-2H-benzo[b][1,4]oxazine-7-sulfonamide] | 841 nM | 4950 nM | 7.36 µM | – |
